# Test results taken from US10669276B2, “Fused pyrimidine derivatives” (Hoffmann-La Roche Inc., priority 2016, dated 2020).
# Molecular target: γ-secretase (Homo sapiens (Human), UniProt P49768)
# Assay: Cellular γ-secretase assay (Aβ42 secretion, AlphaLisa)
# Format: cell-based
# Details: inhibition of Aβ42 secretion; human neuroglioma H4 cells overexpressing human APP695 Swedish double mutation; 24 hr compound incubation
# Procedure: Human neuroglioma H4 cells overexpressing human APP695 with the Swedish double mutation (K595N/M596L) were plated at 30,000 cells/well/100 μl in 96-well plates in IMDM media containing 10% FCS, 0.2 mg/l Hygromycin B and incubated at 37° C., 5% CO2.
# 3-4 hr post plating, compounds are a diluted in media and 50 μl is added as […] concentrate to achieve the final concentration. Compound incubation is performed for 24 hr. Final doses typically range from 4 μM down to 0.0013 μM in half-log steps resulting in an eight point dose response curve. Appropriate controls using vehicle only and reference compound were applied to this assay. The final concentration of Me2SO was 0.4%.
# After incubation at 37° C., 5% CO2, the supernatant was subjected to quantification of secreted Aβ42 by the means of an AlphaLisa assay kit (Human Amyloid beta 1-42 Kit: Cat # AL203C, Perkin Elmer). 20 μl of the cell culture supernatant was transferred to an assay plate. Then 10 μl of a mixture of the AlphaLisa coupled capture antibody and the biotinylated detection antibody was added and incubated for 3 hours at room temperature while softly shaking the assay plate. After a further addition of 20 μl of the Donor beads the assay plate was incubated for 30 min at room temperature and constant shaking without exposure to direct light. The assay plate was then read on a Paradigm AlphaLisa Reader using the build-in program with excitation at 680 nm and emission at […]. The measured signals were then used to calculate IC50 values for inhibition of Aβ42 secretion by nonlinear regression fit analysis using XLfit 5.3 software (IDBS).
row,Structure (SMILES),EC50 [nM]
1,"CNc1nc(Nc2ccc(-n3cnc(C)n3)c(OC(F)F)c2)nc2c1C(C)(C)CN2c1ccc(F)cc1 [Example 2, N2-(3-(Difluoromethoxy)-4-(3-methyl-1H-1,2,4-triazol-1-yl)phenyl)-7-(4-fluorophenyl)-N4,5,5-trimethyl-6,7-dihydro-5H-pyrrolo[2,3-d]pyrimidine-2,4-diamine]",8
2,"COc1cc(Nc2nc(NCCO)c3c(n2)N(c2ccc(F)cc2)CC3(C)C)cnc1-n1cnc(Cl)c1 [Example 30, 2-((2-((6-(4-Chloro-1H-imidazol-1-yl)-5-methoxypyridin-3-yl)amino)-7-(4-fluorophenyl)-5,5-dimethyl-6,7-dihydro-5H-pyrrolo[2,3-d]pyrimidin-4-yl)amino)ethanol]",11
3,"CNc1nc(Nc2ccc(-n3cnc(C)n3)c(OC)c2)nc2c1C(C)(C)CN2c1cccc(F)c1F [Example 41, 7-(2,3-Difluorophenyl)-N2-(3-methoxy-4-(3-methyl-1H-1,2,4-triazol-1-yl)phenyl)-N4,5,5-trimethyl-6,7-dihydro-5H-pyrrolo[2,3-d]pyrimidine-2,4-diamine]",9
4,"CNc1nc(Nc2ccc(-n3cnc(C)c3)cc2)nc2c1C(C)(C)CN2c1ccc(F)cc1 [Example 12, 7-(4-Fluorophenyl)-N4,5,5-trimethyl-N2-(4-(4-methyl-1H-imidazol-1-yl)phenyl)-6,7-dihydro-5H-pyrrolo[2,3-d]pyrimidine-2,4-diamine]",13
5,"CNc1nc(Nc2ccc(-n3cnc(C)n3)c(F)c2)nc2c1C(C)(C)CN2c1ccc(F)cc1F [Example 24, 7-(2,4-Difluorophenyl)-N2-(3-fluoro-4-(3-methyl-1H-1,2,4-triazol-1-yl)phenyl)-N4,5,5-trimethyl-6,7-dihydro-5H-pyrrolo[2,3-d]pyrimidine-2,4-diamine]",22
6,"CNc1nc(Nc2cnc(-n3cnc(C)c3)c(F)c2)nc2c1C(C)(C)CN2c1ccc(F)cc1 [Example 25, N2-(5-Fluoro-6-(4-methyl-1H-imidazol-1-yl)pyridin-3-yl)-7-(4-fluorophenyl)-N4,5,5-trimethyl-6,7-dihydro-5H-pyrrolo[2,3-d]pyrimidine-2,4-diamine]",8
7,"CNc1nc(Nc2cnc(-n3cnc(C)c3)c(OC)c2)nc2c1C(C)(C)CN2C1CC(F)(F)C1 [Example 18, 7-(3,3-Difluorocyclobutyl)-N2-(5-methoxy-6-(4-methyl-1H-imidazol-1-yl)pyridin-3-yl)-N4,5,5-trimethyl-6,7-dihydro-5H-pyrrolo[2,3-d]pyrimidine-2,4-diamine]",14
8,"CNc1nc(Nc2ccc(-n3cnc(C)c3)c(F)c2)nc2c1C(C)(C)CN2c1ccc(F)cc1Cl [Example 45, 7-(2-Chloro-4-fluorophenyl)-N2-(3-fluoro-4-(4-methyl-1H-imidazol-1-yl)phenyl)-N4,5,5-trimethyl-6,7-dihydro-5H-pyrrolo[2,3-d]pyrimidine-2,4-diamine]",4
9,"CNc1nc(Nc2ccc(-n3cnc(C)c3)c(F)c2)nc2c1C(C)(C)CN2c1cccc(F)c1F [Example 43, 7-(2,3-Difluorophenyl)-N2-(3-fluoro-4-(4-methyl-1H-imidazol-1-yl)phenyl)-N4,5,5-trimethyl-6,7-dihydro-5H-pyrrolo[2,3-d]pyrimidine-2,4-diamine]",5
10,"CNc1nc(Nc2ccc(-n3cnc(C)c3)c(F)c2)nc2c1C(C)(C)CCN2c1ccc(F)cc1 [Example 37, N2-(3-Fluoro-4-(4-methyl-1H-imidazol-1-yl)phenyl)-8-(4-fluorophenyl)-N4,5,5-trimethyl-5,6,7,8-tetrahydropyrido[2,3-d]pyrimidine-2,4-diamine]",8
11,"CNc1nc(Nc2ccc(-n3cnc(C)c3)c(F)c2)nc2c1C(C)(C)CN2c1ccc(F)cc1 [Example 34, N2-(3-Fluoro-4-(4-methyl-1H-imidazol-1-yl)phenyl)-7-(4-fluorophenyl)-N4,5,5-trimethyl-6,7-dihydro-5H-pyrrolo[2,3-d]pyrimidine-2,4-diamine]",8
12,"COc1cc(Nc2nc(NCCO)c3c(n2)N(c2ccc(F)cc2)CC3(C)C)ccc1-n1cnc(C)n1 [Example 28, 2-((7-(4-Fluorophenyl)-2-((3-methoxy-4-(3-methyl-1H-1,2,4-triazol-1-yl)phenyl)amino)-5,5-dimethyl-6,7-dihydro-5H-pyrrolo[2,3-d]pyrimidin-4-yl)amino)ethanol]",8
13,"CNc1nc(Nc2ccc(-n3cnc(C)n3)c(OC)c2)nc2c1CCN2c1ccc(F)cc1 [Example 32, 7-(4-Fluorophenyl)-N2-(3-methoxy-4-(3-methyl-1H-1,2,4-triazol-1-yl)phenyl)-N4-methyl-6,7-dihydro-5H-pyrrolo[2,3-d]pyrimidine-2,4-diamine]",10
14,"CNc1nc(Nc2ccc(-n3cnc(Cl)c3)c(OC)c2)nc2c1C(C)(C)CN2c1ccc(F)cc1 [Example 4, N2-(4-(4-Chloro-1H-imidazol-1-yl)-3-methoxyphenyl)-7-(4-fluorophenyl)-N4,5,5-trimethyl-6,7-dihydro-5H-pyrrolo[2,3-d]pyrimidine-2,4-diamine]",7
15,"CNc1nc(Nc2ccc(-n3cnc(C)n3)c(OC)c2)nc2c1C(C)(C)CN2c1ccc(F)cc1F [Example 19, 7-(2,4-Difluorophenyl)-N2-(3-methoxy-4-(3-methyl-1H-1,2,4-triazol-1-yl)phenyl)-N4,5,5-trimethyl-6,7-dihydro-5H-pyrrolo[2,3-d]pyrimidine-2,4-diamine]",8
16,"CNc1nc(Nc2cnc(-n3cnc(C)c3)c(F)c2)nc2c1C(C)(C)CN2c1ccc(F)cc1F [Example 26, 7-(2,4-Difluorophenyl)-N2-(5-fluoro-6-(4-methyl-1H-imidazol-1-yl)pyridin-3-yl)-N4,5,5-trimethyl-6,7-dihydro-5H-pyrrolo[2,3-d]pyrimidine-2,4-diamine]",6
17,"CNc1nc(Nc2ccc(-n3cnc(C)n3)c(OC)c2)nc2c1C(C)(C)CCN2c1ccc(F)cc1 [Example 35, 8-(4-Fluorophenyl)-N2-(3-methoxy-4-(3-methyl-1H-1,2,4-triazol-1-yl)phenyl)-N4,5,5-trimethyl-5,6,7,8-tetrahydropyrido[2,3-d]pyrimidine-2,4-diamine]",13
18,"CNc1nc(Nc2cnc(-n3cnc(C)c3)c(OC)c2)nc2c1C(C)CN2c1ccc(F)cc1 (centres unmarked) [Example 40, 7-(4-Fluorophenyl)-N2-(5-methoxy-6-(4-methyl-1H-imidazol-1-yl)pyridin-3-yl)-N4,5-dimethyl-6,7-dihydro-5H-pyrrolo[2,3-d]pyrimidine-2,4-diamine]",6
19,"CNc1nc(Nc2cnc(-n3cnc(Cl)c3)c(OC)c2)nc2c1C(C)(C)CN2c1ccc(F)cc1F [Example 23, N2-(6-(4-Chloro-1H-imidazol-1-yl)-5-methoxypyridin-3-yl)-7-(2,4-difluorophenyl)-N4,5,5-trimethyl-6,7-dihydro-5H-pyrrolo[2,3-d]pyrimidine-2,4-diamine]",8
20,"CNc1nc(Nc2ccc(-c3nnc(C)o3)c(OC)c2)nc2c1C(C)(C)CN2c1ccc(F)cc1 [Example 27, 7-(4-Fluorophenyl)-N2-(3-methoxy-4-(5-methyl-1,3,4-oxadiazol-2-yl)phenyl)-N4,5,5-trimethyl-6,7-dihydro-5H-pyrrolo[2,3-d]pyrimidine-2,4-diamine]",30
21,"CNc1nc(Nc2ccc(-n3cnc(C)n3)c(F)c2)nc2c1C(C)(C)CN2c1ccc(F)cc1 [Example 3, N2-(3-Fluoro-4-(3-methyl-1H-1,2,4-triazol-1-yl)phenyl)-7-(4-fluorophenyl)-N4,5,5-trimethyl-6,7-dihydro-5H-pyrrolo[2,3-d]pyrimidine-2,4-diamine]",16
22,"CNc1nc(Nc2cnc(-n3cnc(Cl)c3)c(OC)c2)nc2c1C(C)(C)CN2c1ccc(F)c(F)c1 [Example 14, N2-(6-(4-Chloro-1H-imidazol-1-yl)-5-methoxypyridin-3-yl)-7-(3,4-difluorophenyl)-N4,5,5-trimethyl-6,7-dihydro-5H-pyrrolo[2,3-d]pyrimidine-2,4-diamine]",10
23,"CNc1nc(Nc2ccc(-n3cnc(C)n3)nc2)nc2c1C(C)(C)CN2c1ccc(F)cc1 [Example 13, 7-(4-Fluorophenyl)-N4,5,5-trimethyl-N2-(6-(3-methyl-1H-1,2,4-triazol-1-yl)pyridin-3-yl)-6,7-dihydro-5H-pyrrolo[2,3-d]pyrimidine-2,4-diamine]",23
24,"CNc1nc(Nc2ccc(-c3nnc(C)o3)cc2)nc2c1C(C)(C)CN2c1ccc(F)cc1 [Example 47, 7-(4-Fluorophenyl)-N4,5,5-trimethyl-N2-(4-(5-methyl-1,3,4-oxadiazol-2-yl)phenyl)-6,7-dihydro-5H-pyrrolo[2,3-d]pyrimidine-2,4-diamine]",55
25,"CNc1nc(Nc2ccc(-n3cnc(C)n3)c(F)c2)nc2c1C(C)(C)CN2c1ccc(F)c(F)c1 [Example 9, 7-(3,4-Difluorophenyl)-N2-(3-fluoro-4-(3-methyl-1H-1,2,4-triazol-1-yl)phenyl)-N4,5,5-trimethyl-6,7-dihydro-5H-pyrrolo[2,3-d]pyrimidine-2,4-diamine]",26
26,"CNc1nc(Nc2ccc(-n3ncnc3C)c(F)c2)nc2c1C(C)(C)CN2c1ccc(F)cc1 [Example 5, N2-(3-Fluoro-4-(5-methyl-1H-1,2,4-triazol-1-yl)phenyl)-7-(4-fluorophenyl)-N4,5,5-trimethyl-6,7-dihydro-5H-pyrrolo[2,3-d]pyrimidine-2,4-diamine]",22
